Reference: patent US20050282818A1, “Ubiquitin ligase inhibitors” (Rigel Pharmaceuticals, Inc., priority 2004, published 2005)

Biological target: T1, TRAF6/Uev1A/Ubc13 (Homo sapiens, UniProt Q9Y4K3)
T1 sequence (Q9Y4K3 1-522): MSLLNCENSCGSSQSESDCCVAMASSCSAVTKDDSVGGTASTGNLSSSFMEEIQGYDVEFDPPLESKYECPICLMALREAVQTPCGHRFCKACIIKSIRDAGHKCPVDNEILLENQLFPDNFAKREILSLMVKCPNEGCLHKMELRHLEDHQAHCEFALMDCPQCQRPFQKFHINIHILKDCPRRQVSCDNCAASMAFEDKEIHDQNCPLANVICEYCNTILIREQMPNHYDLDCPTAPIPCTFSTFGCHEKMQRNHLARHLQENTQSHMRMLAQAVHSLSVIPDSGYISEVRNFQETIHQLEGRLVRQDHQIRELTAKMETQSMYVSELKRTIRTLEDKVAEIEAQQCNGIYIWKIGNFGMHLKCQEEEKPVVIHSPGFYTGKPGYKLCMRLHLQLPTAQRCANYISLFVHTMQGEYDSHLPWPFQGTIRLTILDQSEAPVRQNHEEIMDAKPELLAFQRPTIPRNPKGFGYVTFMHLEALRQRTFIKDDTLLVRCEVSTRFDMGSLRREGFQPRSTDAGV
Assay: TRAF6/Uev1A/Ubc13 plate-based ubiquitin ligase assay
Type: biochemical
Experimental: For the assays described below, the TRAF6/Uev1A/UBC13 assay is the biochemical plate-based assay of TRAF6 ligase activity using Ubc13 as the E2 enzyme. The gel-based assay is the biochemical solution-based TRAF6 ligase assay (by SDS-PAGE and Western blot) to confirm the plate-based ELISA assay. The APC assay is an assay which is another E3 ligase (APC2/APC11) biochemical assay.
A 96-well Ni-plate was blocked with 100 μl of 1% casein in PBS for 1 hour at room temperature. The plates were then washed three times with 200 μl of 1×PBS and 80 μl of a reaction buffer was added per well which contained 50 ng of Flag-ubiquitin, 50 ng of His-ubiquitin, 62.5 mM Tris pH 7.5, 6.25 mM MgCl2, 1.0 mM DTT, and 2 μM ATP. To each well was added 10 μl of a solution of the compound in DMSO. The reaction was started by adding 10 μl of a solution consisting of 10 ng human E1, 25 ng each of Uev1a and Ubc13, and 100 ng TRAF6 in the reaction buffer. The plates were shaken for 10 minutes and incubate at room temperature for 1 hour. After the incubation, the plates were washed three times with 200 μl 1×PBS in 0.05% Tween and 100 μl of an antibody mix consisting of anti-Flag (1:30,000 dilution; Sigma F-3165) and anti-Mouse IgG-HRP (1/150,000 dilution; Jackson Immunoresearch #115-035-146) in 1×PBS with 0.25% BSA. The plates were then incubated for another 1 hour at room temperature, and after incubation the plate was washed three times with 200 μl 1×PBS with 0.05% Tween. The amount of ubiquitin was measured by adding 100 μl of Lumino substrate (1:5 dilution) and reading the luminescence with a fluorimeter.
Table 2 below illustrates the inhibitory activity of the compounds of the invention determined by the TRAF6/Uev1A/Ubc13 assay as well as in the ICAM, APC and the ROC1/CUL1 Ubiquitin Ligase Assay (SCF Assay). The IC50 values were determined using a various concentrations of the compounds.

Compound | IC50 [µM]
O=S(=O)(Nc1cccc2nonc12)c1ccc(Oc2ccc3c(C(F)(F)F)cc(C(F)(F)F)nc3n2)cc1 [compound 81, N-2,1,3-benzoxadiazol-4-yl-4-{[5,7-bis(trifluoromethyl)-1,8-naphthyridin-2-yl]oxy}benzenesulfonamide] | ≥ 20
O=S(=O)(Nc1cccc2nsnc12)c1ccc(Oc2ccc(C(F)(F)F)cc2Cl)nc1 [compound 117, N-2,1,3-benzothiadiazol-4-yl-6-[2-chloro-4-(trifluoromethyl)phenoxy]pyridine-3-sulfonamide] | ≥ 20
O=[N+]([O-])c1ccc(N2CCN(c3ccc([N+](=O)[O-])c4nonc34)CC2)cc1 [compound 147, 4-nitro-7-[4-(4-nitrophenyl)piperazin-1-yl]-2,1,3-benzoxadiazole] | 1 to 20
CCOc1ccc2nc(NS(=O)(=O)c3ccc(Cl)c4nonc34)sc2c1 [compound 198, 7-chloro-N-(6-ethoxy-1,3-benzothiazol-2-yl)-2,1,3-benzoxadiazole-4-sulfonamide] | ≥ 20
O=[N+]([O-])c1ccc(N2CCSCC2)c2nonc12 [compound 237, 4-nitro-7-thiomorpholin-4-yl-2,1,3-benzoxadiazole] | ≥ 20
O=S(=O)(c1cccc2nsnc12)N1CCC(Oc2ccccc2C(F)(F)F)CC1 [compound 240, 4-({4-[2-(trifluoromethyl)phenoxy]piperidin-1-yl}sulfonyl)-2,1,3-benzothiadiazole] | ≥ 20
CC1(C)CCN(S(=O)(=O)c2ccc(Cl)c3nonc23)CC1 [compound 247, 4-chloro-7-[(4,4-dimethylpiperidin-1-yl)sulfonyl]-2,1,3-benzoxadiazole] | ≥ 20
COC(=O)c1ccc(NS(=O)(=O)c2ccc(Sc3ccc4ccccc4n3)c3nonc23)cc1 [compound 248, methyl 4-({[7-(quinolin-2-ylthio)-2,1,3-benzoxadiazol-4-yl]sulfonyl}amino)benzoate] | ≥ 20
O=S(=O)(c1ccc(Sc2ccc(O)cc2)c2nonc12)N1CCN(c2ccccc2)CC1 [compound 249, 4-({7-[(4-phenylpiperazin-1-yl)sulfonyl]-2,1,3-benzoxadiazol-4-yl}thio)phenol] | 1 to 20
COC(=O)c1ccc(NS(=O)(=O)c2ccc(N3CCSCC3)c3nonc23)cc1 [compound 250, methyl 4-{[(7-thiomorpholin-4-yl-2,1,3-benzoxadiazol-4-yl)sulfonyl]amino}benzoate] | ≥ 20
O=S(=O)(c1ccc(Sc2ccncc2)c2nonc12)N1CCN(c2ccccc2)CC1 [compound 251, 4-[(4-phenylpiperazin-1-yl)sulfonyl]-7-(pyridin-4-ylthio)-2,1,3-benzoxadiazole] | ≥ 20
O=S(=O)(c1ccc(Sc2ccc3ccccc3n2)c2nonc12)N1CCN(c2ccccc2)CC1 [compound 252, 2-({7-[(4-phenylpiperazin-1-yl)sulfonyl]-2,1,3-benzoxadiazol-4-yl}thio)quinoline] | ≥ 20
O=S(=O)(c1ccc(Sc2cccc3ccccc23)c2nonc12)N1CCN(c2ccccc2)CC1 [compound 253, 4-(1-naphthylthio)-7-[(4-phenylpiperazin-1-yl)sulfonyl]-2,1,3-benzoxadiazole] | 1 to 20
O=[N+]([O-])c1ccc(N2CCC(S(=O)(=O)c3ccccn3)CC2)c2nonc12 [compound 289, 4-nitro-7-[4-(pyridin-2-ylsulfonyl)piperidin-1-yl]-2,1,3-benzoxadiazole] | ≥ 20

Further lines, results first:

IC50 [µM] | Compound
≥ 20 | O=S(=O)(Nc1cccc(F)c1)c1ccc(F)c2nonc12 [compound 272, 7-fluoro-N-(3-fluorophenyl)-2,1,3-benzoxadiazole-4-sulfonamide]
≥ 20 | O=S(=O)(Nc1cccc(F)c1)c1ccc(Nc2cccc(F)c2)c2nonc12 [compound 273, N-(3-fluorophenyl)-7-[(3-fluorophenyl)amino]-2,1,3-benzoxadiazole-4-sulfonamide]
1 to 20 | Cc1cc(F)ccc1Nc1ccc(S(=O)(=O)Nc2ccc(F)cc2C)c2nonc12 [compound 275, N-(4-fluoro-2-methylphenyl)-7-[(4-fluoro-2-methylphenyl)amino]-2,1,3-benzoxadiazole-4-sulfonamide]
1 to 20 | Cc1cc(F)ccc1NS(=O)(=O)c1ccc(F)c2nonc12 [compound 276, 7-fluoro-N-(4-fluoro-2-methylphenyl)-2,1,3-benzoxadiazole-4-sulfonamide]
≥ 20 | COC(=O)c1ccc(NS(=O)(=O)c2ccc(Oc3cccc4cccnc34)c3nonc23)cc1 [compound 277, methyl 4-({[7-(quinolin-8-yloxy)-2,1,3-benzoxadiazol-4-yl]sulfonyl}amino)benzoate]
≥ 20 | FC(F)(F)c1cnc(N2CCN(c3ccc(N4CCOCC4)c4nonc34)CC2)c(Cl)c1 [compound 282, 4-{4-[3-chloro-5-(trifluoromethyl)pyridin-2-yl]piperazin-1-yl}-7-morpholin-4-yl-2,1,3-benzoxadiazole]
≥ 20 | O=[N+]([O-])c1ccc(S(=O)(=O)c2cccc3cccnc23)c2nonc12 [compound 290, 8-[(7-nitro-2,1,3-benzoxadiazol-4-yl)sulfonyl]quinoline]
≥ 20 | CCN(CC)c1cc(N2CCN(c3ccc(Cl)c(C(F)(F)F)c3)CC2)c2nonc2c1[N+](=O)[O-] [compound 292, 7-{4-[4-chloro-3-(trifluoromethyl)phenyl]piperazin-1-yl}-N,N-diethyl-4-nitro-2,1,3-benzoxadiazol-5-amine]
≥ 20 | CCN(CC)c1cc(N2CCN(c3ncc(C(F)(F)F)cc3Cl)CC2)c2nonc2c1[N+](=O)[O-] [compound 293, 7-{4-[3-chloro-5-(trifluoromethyl)pyridin-2-yl]piperazin-1-yl}-N,N-diethyl-4-nitro-2,1,3-benzoxadiazol-5-amine]
≥ 20 | CCN(CC)c1cc(N2CCN(c3ncccc3C#N)CC2)c2nonc2c1[N+](=O)[O-] [compound 294, 2-{4-[6-(diethylamino)-7-nitro-2,1,3-benzoxadiazol-4-yl]piperazin-1-yl}nicotinonitrile]
≥ 20 | O=[N+]([O-])c1c(N2CCCCC2)cc(N2CCN(c3ccc(Cl)c(C(F)(F)F)c3)CC2)c2nonc12 [compound 295, 7-{4-[4-chloro-3-(trifluoromethyl)phenyl]piperazin-1-yl}-4-nitro-5-piperidin-1-yl-2,1,3-benzoxadiazole]
1 to 20 | O=[N+]([O-])c1c(N2CCCCC2)cc(N2CCN(c3ncc(C(F)(F)F)cc3Cl)CC2)c2nonc12 [compound 296, 7-{4-[3-chloro-5-(trifluoromethyl)pyridin-2-yl]piperazin-1-yl}-4-nitro-5-piperidin-1-yl-2,1,3-benoxadiazole]
≥ 20 | N#Cc1cccnc1N1CCN(c2cc(N3CCCCC3)c([N+](=O)[O-])c3nonc23)CC1 [compound 297, 2-[4-(7-nitro-6-piperidin-1-yl-2,1,3-benzoxadiazol-4-yl)piperazin-1-yl]nicotinonitrile]
≥ 20 | CCN(CC)c1cc(N2CCC3(CC2)OCc2ccccc23)c2nonc2c1[N+](=O)[O-] [compound 298, N,N-diethyl-4-nitro-7-(1′H,3H-spiro[2-benzofuran-1,4′-piperidin]-1′-yl)-2,1,3-benzoxadiazol-5-amine]
≥ 20 | CCN(CC)c1cc(N2CCC(O)(c3ccccc3)CC2)c2nonc2c1[N+](=O)[O-] [compound 299, 1-[6-(diethylamino)-7-nitro-2,1,3-benzoxadiazol-4-yl]-4-phenylpiperidin-4-ol]
≥ 20 | O=[N+]([O-])c1c(N2CCCCC2)cc(N2CCC3(CC2)OCc2ccccc23)c2nonc12 [compound 300, 1′-(7-nitro-6-piperidin-1-yl-2,1,3-benzoxadiazol-4-yl)-3H-spiro[2-benzofuran-1,4′-piperidine]]
≥ 20 | O=[N+]([O-])c1c(N2CCCCC2)cc(N2CCC(O)(c3ccccc3)CC2)c2nonc12 [compound 301, 1-(7-nitro-6-piperidin-1-yl-2,1,3-benzoxadiazol-4-yl)-4-phenylpiperidin-4-ol]
